Data on 27 compounds can be found in patent publication US9328106B2, “Cyclic ether pyrazol-4-yl-heterocyclyl-carboxamide compounds and methods of use” (Genentech, Inc., priority 2012, dated 2016).

As a reminder, the Ki is a dissociation constant, usually derived from enzyme kinetics or from competition with a known ligand.

In this experiment the target is PIM1 (Homo sapiens (Human), UniProt P11309). The experiment in a line: biochemical. It is filed as biochemical. Particulars: 20 pM PIM1, 1 μM FAM-peptide, 10 μM ATP, 90 minutes at room temperature; read-out: PIM1 LC3K (KI).
PIM1, sequence (P11309 whole entry): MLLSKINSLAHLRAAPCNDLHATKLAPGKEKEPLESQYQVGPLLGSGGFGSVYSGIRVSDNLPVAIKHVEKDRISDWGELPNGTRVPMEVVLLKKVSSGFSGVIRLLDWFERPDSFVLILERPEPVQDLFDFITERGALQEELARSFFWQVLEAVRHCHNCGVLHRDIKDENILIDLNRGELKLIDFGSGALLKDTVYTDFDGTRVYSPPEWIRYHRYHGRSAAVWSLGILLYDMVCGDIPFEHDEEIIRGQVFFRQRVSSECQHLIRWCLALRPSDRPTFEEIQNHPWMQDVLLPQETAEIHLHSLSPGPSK
Procedure: Reaction Buffer contained 10 mM HEPES, pH 7.2, 10 mM MgCl2, 0.01% Tween 20, 2 mM DTT. Termination Buffer contained 190 mM HEPES, pH 7.2, 0.015% Brij-35, 0.2% Coating Reagent 3 (Caliper Life Sciences, Hopkinton, Mass.), 20 mM EDTA. Separation Buffer contained 100 mM HEPES, pH 7.2, 0.015% Brij-35, 0.1% Coating Reagent 3, 1:200 Coating Reagent 8 (Caliper Life Sciences, Hopkinton, Mass.), 10 mM EDTA and 5% DMSO.
PIM reactions were carried out in a final volume of 10 μL per well in a 384-well plate. […] After 90 minutes of incubation at room temperature, the phosphorylation reaction was stopped by the addition of 10 μL Termination Buffer. The product and substrate in each independent reaction were separated on a 12-sipper microfluidic chip (Caliper Life Sciences, Hopkinton, Mass.) run on a Caliper LC3000® (Caliper Life Sciences, Hopkinton, Mass.). The separation of product and substrate was optimized by choosing voltages and pressure using Caliper's Optimizer software (Hopkinton, Mass.). The separation conditions used a downstream voltage of −500V, an upstream voltage of −2150V, and a screening pressure of −1.2 psi. […] Substrate conversion was calculated from the electropherogram using HTS Well Analyzer software (Caliper Life Sciences, Hopkinton, Mass.). Ki values for the test compound were calculated.
As for `COc1ccc(F)c(F)c1-c1nc(C(=O)Nc2cnn(C)c2[C@@H]2CC[C@@H](N)[C@@H](F)CO2)c(N)s1` [Example 277, 5-amino-N-(5-((2S,5R,6R)-5-amino-6-fluorooxepan-2-yl)-1-methyl-1H-pyrazol-4-yl)-2-(2,3-difluoro-6-methoxyphenyl)thiazole-4-carboxamide], the Ki was 0.143 nM.
As for `Cn1ncc(NC(=O)c2nc(-c3c(F)cccc3C(F)(F)F)sc2N)c1[C@@H]1CC[C@@H](N)[C@@H](F)CO1` [Example 278, 5-amino-N-(5-((2S,5R,6R)-5-amino-6-fluorooxepan-2-yl)-1-methyl-1H-pyrazol-4-yl)-2-(2-fluoro-6-(trifluoromethyl)phenyl)thiazole-4-carboxamide], the Ki was 0.061 nM.
With `CO[C@H]1CO[C@H](c2c(NC(=O)c3nc(-c4c(F)cccc4C(F)(F)F)sc3N)cnn2C)CC[C@H]1N` [Example 279, 5-amino-N-(5-((2S,5R,6R)-5-amino-6-methoxyoxepan-2-yl)-1-methyl-1H-pyrazol-4-yl)-2-(2-fluoro-6-(trifluoromethyl)phenyl)thiazole-4-carboxamide], the Ki came out at 0.083 nM.
Then `CO[C@H]1CO[C@H](c2c(NC(=O)c3nc(-c4c(F)cccc4Cl)sc3N)cnn2C)CC[C@H]1N` [Example 280, 5-amino-N-(5-((2S,5R,6R)-5-amino-6-methoxyoxepan-2-yl)-1-methyl-1H-pyrazol-4-yl)-2-(2-chloro-6-fluorophenyl)thiazole-4-carboxamide], with 0.014 nM; and `CO[C@H]1CO[C@H](c2c(NC(=O)c3nc(-c4cc(Cl)ccc4F)sc3N)cnn2C)CC[C@H]1N` [Example 281, 5-amino-N-(5-((2S,5R,6R)-5-amino-6-methoxyoxepan-2-yl)-1-methyl-1H-pyrazol-4-yl)-2-(5-chloro-2-fluorophenyl)thiazole-4-carboxamide], with 0.007 nM; and `Cn1ncc(NC(=O)c2nc(-c3cnn(C)c3C(F)(F)F)sc2N)c1[C@@H]1CC[C@@H](N)[C@H](F)CO1` [Example 282, 5-amino-N-(5-((2S,5R,6S)-5-amino-6-fluorooxepan-2-yl)-1-methyl-1H-pyrazol-4-yl)-2-(1-methyl-5-(trifluoromethyl)-1H-pyrazol-4-yl)thiazole-4-carboxamide], with 0.058 nM.
Turning to `Cn1ncc(NC(=O)c2csc(-c3cnn(C)c3C(F)(F)F)n2)c1[C@@H]1CC[C@@H](N)[C@@H](F)CO1` [Example 283, N-(5-((2S,5R,6R)-5-amino-6-fluorooxepan-2-yl)-1-methyl-1H-pyrazol-4-yl)-2-(1-methyl-5-(trifluoromethyl)-1H-pyrazol-4-yl)thiazole-4-carboxamide], the inhibition constant (Ki) was found to be 0.171 nM.
For the compound `Cn1ncc(NC(=O)c2csc(-c3c(F)cccc3Cl)n2)c1[C@@H]1CC[C@@H](N)[C@H](F)CO1` [Example 284, N-(5-((2S,5R,6S)-5-amino-6-fluorooxepan-2-yl)-1-methyl-1H-pyrazol-4-yl)-2-(2-chloro-6-fluorophenyl)thiazole-4-carboxamide], the Ki worked out at 0.22 nM.
As for `CCOc1ccc(F)c(-c2nc(C(=O)Nc3cnn(C)c3[C@@H]3CC[C@@H](N)[C@H](F)CO3)cs2)c1F` [Example 285, N-(5-((2S,5R,6S)-5-amino-6-fluorooxepan-2-yl)-1-methyl-1H-pyrazol-4-yl)-2-(3-ethoxy-2,6-difluorophenyl)thiazole-4-carboxamide], the Ki amounted to 0.001 nM.
As for `COc1ccc(-c2nc(C(=O)Nc3cnn(C)c3[C@@H]3CC[C@@H](N)[C@@H](F)CO3)cs2)c(F)c1` [Example 287, N-(5-((2S,5R,6R)-5-amino-6-fluorooxepan-2-yl)-1-methyl-1H-pyrazol-4-yl)-2-(2-fluoro-4-methoxyphenyl)thiazole-4-carboxamide], the Ki was found to be 0.053 nM.
Turning to `COc1cc(F)c(-c2nc(C(=O)Nc3cnn(C)c3[C@@H]3CC[C@@H](N)[C@@H](F)CO3)cs2)c(F)c1` [Example 288, N-(5-((2S,5R,6R)-5-amino-6-fluorooxepan-2-yl)-1-methyl-1H-pyrazol-4-yl)-2-(2,6-difluoro-4-methoxyphenyl)thiazole-4-carboxamide], the Ki turned out to be 0.035 nM.
Turning to `Cn1ncc(NC(=O)c2ccc(F)c(-c3c(F)cc(C(C)(C)O)cc3F)n2)c1[C@@H]1CC[C@@H](N)[C@@H](F)CO1` [Example 289, N-(5-((2S,5R,6R)-5-amino-6-fluorooxepan-2-yl)-1-methyl-1H-pyrazol-4-yl)-6-(2,6-difluoro-4-(2-hydroxypropan-2-yl)phenyl)-5-fluoropicolinamide], the Ki is 0.08 nM.
Consider `Cn1ncc(NC(=O)c2ccc(F)c(-c3c(F)cc(C4(O)CCC4)cc3F)n2)c1[C@@H]1CC[C@@H](N)[C@@H](F)CO1` [Example 290, N-(5-((2S,5R,6R)-5-amino-6-fluorooxepan-2-yl)-1-methyl-1H-pyrazol-4-yl)-6-(2,6-difluoro-4-(1-hydroxycyclobutyl)phenyl)-5-fluoropicolinamide], for which the Ki came out at 0.0131 nM.
In the case of `Cn1ncc(NC(=O)c2nc(-c3cc(Cl)ccc3F)sc2N)c1[C@@H]1CC[C@@H](N)[C@H](F)CO1` [Example 291, 5-amino-N-(5-((2S,5R,6S)-5-amino-6-fluorooxepan-2-yl)-1-methyl-1H-pyrazol-4-yl)-2-(5-chloro-2-fluorophenyl)thiazole-4-carboxamide], the Ki worked out at 0.018 nM.
As to `Cc1ccc(F)c(-c2nc(C(=O)Nc3cnn(C)c3[C@@H]3CC[C@@H](N)[C@H](F)CO3)c(N)s2)c1` [Example 292, 5-amino-N-(5-((2S,5R,6S)-5-amino-6-fluorooxepan-2-yl)-1-methyl-1H-pyrazol-4-yl)-2-(2-fluoro-5-methylphenyl)thiazole-4-carboxamide], the Ki amounted to 0.024 nM.
Consider `COc1ccc(-c2nc(C(=O)Nc3cnn(C)c3[C@@H]3CC[C@@H](N)[C@H](F)CO3)cs2)c(F)c1` [Example 293, N-(5-((2S,5R,6S)-5-amino-6-fluorooxepan-2-yl)-1-methyl-1H-pyrazol-4-yl)-2-(2-fluoro-4-methoxyphenyl)thiazole-4-carboxamide], for which the Ki turned out to be 0.059 nM.
For the compound `CC(O)c1cc(F)c(-c2nc(C(=O)Nc3cnn(C)c3[C@@H]3CC[C@@H](N)[C@H](F)CO3)cs2)c(F)c1` (stereo partly drawn) [Example 294, N-(5-((2S,5R,6S)-5-amino-6-fluorooxepan-2-yl)-1-methyl-1H-pyrazol-4-yl)-2-(2,6-difluoro-4-(1-hydroxyethyl)phenyl)thiazole-4-carboxamide], the Ki turned out to be 0.029 nM.
Then `Cn1ncc(NC(=O)c2csc(-c3c(F)cc(C4(O)CCC4)cc3F)n2)c1[C@@H]1CC[C@@H](N)[C@H](F)CO1` [Example 295, N-(5-((2S,5R,6S)-5-amino-6-fluorooxepan-2-yl)-1-methyl-1H-pyrazol-4-yl)-2-(2,6-difluoro-4-(1-hydroxycyclobutyl)phenyl)thiazole-4-carboxamide], with 0.027 nM.
For `COc1cc(F)c(-c2nc(C(=O)Nc3cnn(C)c3[C@@H]3CC[C@@H](N)[C@H](F)CO3)cs2)c(F)c1` [Example 296, N-(5-((2S,5R,6S)-5-amino-6-fluorooxepan-2-yl)-1-methyl-1H-pyrazol-4-yl)-2-(2,6-difluoro-4-methoxyphenyl)thiazole-4-carboxamide], the Ki came to 0.031 nM.
Then `Cn1ncc(NC(=O)c2csc(-c3c(F)cc(C(C)(C)O)cc3F)n2)c1[C@@H]1CC[C@@H](N)[C@H](F)CO1` [Example 297, N-(5-((2S,5R,6S)-5-amino-6-fluorooxepan-2-yl)-1-methyl-1H-pyrazol-4-yl)-2-(2,6-difluoro-4-(2-hydroxypropan-2-yl)phenyl)thiazole-4-carboxamide], with 0.021 nM; and `Cn1ncc(NC(=O)c2csc(-c3ccccc3C(F)F)n2)c1[C@@H]1CC[C@@H](N)[C@H](F)CO1` [Example 298, N-(5-((2S,5R,6S)-5-amino-6-fluorooxepan-2-yl)-1-methyl-1H-pyrazol-4-yl)-2-(2-(difluoromethyl)phenyl)thiazole-4-carboxamide], with 0.783 nM; and `Cn1ncc(NC(=O)c2csc(-c3cc(Br)ccc3F)n2)c1[C@@H]1CC[C@@H](N)[C@H](F)CO1` [Example 299, N-(5-((2S,5R,6S)-5-amino-6-fluorooxepan-2-yl)-1-methyl-1H-pyrazol-4-yl)-2-(5-bromo-2-fluorophenyl)thiazole-4-carboxamide], with 0.023 nM.
Then `Cn1ncc(NC(=O)c2csc(-c3ccncc3F)n2)c1[C@@H]1CC[C@@H](N)[C@H](F)CO1` [Example 300, N-(5-((2S,5R,6S)-5-amino-6-fluorooxepan-2-yl)-1-methyl-1H-pyrazol-4-yl)-2-(3-fluoropyridin-4-yl)thiazole-4-carboxamide], with 0.134 nM.
For `Cn1ncc(NC(=O)c2csc(-c3cc(F)ccc3F)n2)c1[C@@H]1CC[C@@H](N)[C@H](F)CO1` [Example 301, N-(5-((2S,5R,6S)-5-amino-6-fluorooxepan-2-yl)-1-methyl-1H-pyrazol-4-yl)-2-(2,5-difluorophenyl)thiazole-4-carboxamide], the Ki stood at 0.058 nM.
For `Cn1ncc(NC(=O)c2csc(-c3cc(Cl)ccc3F)n2)c1[C@@H]1CC[C@@H](N)[C@H](F)CO1` [Example 302, N-(5-((2S,5R,6S)-5-amino-6-fluorooxepan-2-yl)-1-methyl-1H-pyrazol-4-yl)-2-(5-chloro-2-fluorophenyl)thiazole-4-carboxamide], the Ki came out at 0.031 nM.
Take `Cc1ccc(F)c(-c2nc(C(=O)Nc3cnn(C)c3[C@@H]3CC[C@@H](N)[C@H](F)CO3)cs2)c1F` [Example 303, N-(5-((2S,5R,6S)-5-amino-6-fluorooxepan-2-yl)-1-methyl-1H-pyrazol-4-yl)-2-(2,6-difluoro-3-methylphenyl)thiazole-4-carboxamide]: the Ki amounted to 0.013 nM.
Regarding `C[C@@H](O)c1cc(F)c(-c2nc(C(=O)Nc3cnn(C)c3[C@@H]3CC[C@@H](N)[C@H](F)CO3)cs2)c(F)c1` [Example 304, N-(5-((2S,5R,6S)-5-amino-6-fluorooxepan-2-yl)-1-methyl-1H-pyrazol-4-yl)-2-(2,6-difluoro-4-((R)-1-hydroxyethyl)phenyl)thiazole-4-carboxamide], the Ki is 0.014 nM.
